Consider 30 molecules from patent USRE47589E1, “Phosphoramidate compounds and methods of use” (NuCana plc, priority 2003, dated 2019).

Common to all, as to type: cell-based
The subject of experiment [1] is human colon cancer cell line (HT115). As to the kind of experiment: MTT cytotoxicity assay, colon cancer cell line. The procedure: (§1) The compounds include those whose preparations are described above and compounds made by preparative methods corresponding to the methods described above.
(§2) Compounds were diluted over a range of concentrations and added to cells over 1 to 3 days. The cytotoxity was determined using a MTT assay at the end of each experiment.
For orientation: Tetrazolium dyes change colour on reduction, which living cells bring about.

Experiment [2] deals with human prostate cancer cell line (PC-3). Briefly: MTT cytotoxicity assay, prostate cancer cell line. Conditions: read-out: EC50/μM Prostate PC-3. The procedure: as §1, §2
Experiment [3] has as its system human breast cancer cell line (MDA MB 231). Briefly: MTT cytotoxicity assay, breast cancer cell line. The settings on record: Homo sapiens, MDA-MB-231, read-out: EC50/μM Breast MDA MB231. The procedure: as §1, §2
[4] abbreviates: Homo sapiens, HT115, read-out: EC50/μM Colon HT115, MTT assay, compounds added to cells over 1 to 3 days.
[5] abbreviates: MTT assay, compounds added to cells over 1 to 3 days, read-out: EC50/μM Colon HT115.
Setting [6] is: MTT assay, compounds added to cells over 1 to 3 days.

Like-named read-outs stand apart in the source and are kept apart here.

For `O=c1[nH]c(=O)n([C@H]2CC(O)[C@@H](CO)O2)cc1/C=C/Br` (stereo in doubt) [Example A, 5-(2-Bromovinyl)-2′-deoxyuridine, reference compound], the EC50 is 78.7 µM in experiment [1] (setting [4]), 120 µM in experiment [2] (Homo sapiens) and 125 µM in experiment [3].
For `COC(=O)[C@H](C)NP(=O)(OC[C@H]1O[C@@H](n2cc(/C=C/Br)c(=O)[nH]c2=O)CC1O)Oc1ccccc1` (stereo partly drawn) [Example 1, (E)-5-(2-Bromovinyl)-2′-deoxyuridine-5′-[phenyl-(methoxy-L-alaninyl)]-phosphate, reference compound], the EC50 in experiment [1] (setting [4]) was found to be 244 µM; in experiment [1] (read-out: EC50/μM Colon HT115, MTT assay, compounds added to cells over 1 to 3 days), 244 µM; in experiment [2] (Homo sapiens), 155 µM; in experiment [3] it was 79 µM.
With `C[C@H](NP(=O)(OC[C@H]1O[C@@H](n2cc(/C=C/Br)c(=O)[nH]c2=O)CC1O)Oc1ccc(C(F)(F)F)cc1)C(=O)OCc1ccccc1` (stereo partly drawn) [Example 4, (E)-5-(2-Bromovinyl)-2′-deoxyuridine-5′-[para-trifluorophenyl-(benzoxy-L-alaninyl)]-phosphate], the figures for the EC50 in experiment [1] (setting [4]), in experiment [2] (Homo sapiens) and in experiment [3] were 7.4 µM, 9.3 µM and 31 µM, respectively.
The matching figures for `COC(=O)[C@H](C)NP(=O)(OC[C@H]1O[C@@H](n2cc(/C=C/Br)c(=O)[nH]c2=O)CC1O)Oc1ccc(F)cc1` (stereo partly drawn) [Example 5, (E)-5-(2-Bromovinyl)-2′-deoxyuridine-5′-[para-fluorophenyl-(methoxy-L-alaninyl)]-phosphate]: 17 µM, 58 µM and 159 µM.
The matching figures for `CCOC(=O)[C@H](C)NP(=O)(OC[C@H]1O[C@@H](n2cc(/C=C/Br)c(=O)[nH]c2=O)CC1O)Oc1ccc(F)cc1` (stereo partly drawn) [Example 6, (E)-5-(2-Bromovinyl)-2′-deoxyuridine-5′-[para-fluorophenyl-(ethoxy-L-alaninyl)]-phosphate]: 11 µM, 42 µM and 46 µM.
For `C[C@H](NP(=O)(OC[C@H]1O[C@@H](n2cc(/C=C/Br)c(=O)[nH]c2=O)CC1O)Oc1ccc(F)cc1)C(=O)OCc1ccccc1` (stereo partly shown) [Example 7], in that order: 3.5 µM, 16 µM and 17 µM.
Turning to `C[C@H](NP(=O)(OC[C@H]1O[C@@H](n2cc(/C=C/Br)c(=O)[nH]c2=O)CC1O)Oc1ccc([N+](=O)[O-])cc1)C(=O)OCc1ccccc1` (stereo partly drawn) [Example 8, (E)-5-(2-Bromovinyl)-2′-deoxyuridine-5′-[para-nitrophenyl-(benzoxy-L-alaninyl)]-phosphate], the EC50 in experiment [1] (setting [4]) was 9 µM; in experiment [3], 28 µM.
`CCOC(=O)[C@H](C)NP(=O)(OC[C@H]1O[C@@H](n2cc(/C=C/Br)c(=O)[nH]c2=O)CC1O)Oc1ccc([N+](=O)[O-])cc1` (stereo partly drawn) [Example 9, (E)-5-(2-Bromovinyl)-2′-deoxyuridine-5′-[para-nitrophenyl-(ethoxy-L-alaninyl)]-phosphate]: the EC50 in experiment [1] (setting [4]) was 119 µM; in experiment [2] (Homo sapiens) it was 365 µM; in experiment [3], 177 µM.
Turning to `COC(=O)[C@H](C)NP(=O)(OC[C@H]1O[C@@H](n2cc(/C=C/Br)c(=O)[nH]c2=O)CC1O)Oc1ccc([N+](=O)[O-])cc1` (stereo partly drawn) [Example 10, (E)-5-(2-Bromovinyl)-2 ′-deoxyuridine-5′-[para-nitrophenyl-(methoxy-L-alaninyl)]-phosphate], the EC50 in experiment [1] (setting [4]) worked out at 96.7 µM; in experiment [2] (Homo sapiens) it was 10.4 µM; in experiment [3], 105 µM.
The matching figures for `CCOC(=O)[C@H](C)NP(=O)(OC[C@H]1O[C@@H](n2cc(/C=C/Br)c(=O)[nH]c2=O)CC1O)Oc1ccc(Cl)cc1` (stereo partly drawn) [Example 11, (E)-5-(2-bromovinyl)-2′-deoxyuridine-5′-[4-chlorophenyl-(ethoxy-L-alaninyl)]-phosphate]: 14.9 µM, 3.4 µM and 28.7 µM.
Regarding `C[C@H](NP(=O)(OC[C@H]1O[C@@H](n2cc(/C=C/Br)c(=O)[nH]c2=O)CC1O)Oc1ccc(Cl)cc1)C(=O)OCc1ccccc1` (stereo partly drawn) [Example 12, (E)-5-(2-bromovinyl)-2′-deoxyuridine-5′-[4-chlorophenyl-(benzoxy-L-alaninyl)]-phosphate], the EC50 turned out to be 3.4 µM in experiment [1] (setting [4]), 2.4 µM in experiment [2] (Homo sapiens) and 6.2 µM in experiment [3].
Take `COC(=O)[C@H](C)NP(=O)(OC[C@H]1O[C@@H](n2cc(/C=C/Br)c(=O)[nH]c2=O)CC1O)Oc1ccc(Cl)cc1` (stereo partly drawn) [Example 13, (E)-5-(2-bromovinyl)-2′-deoxyuridine-5′-[4-chlorophenyl-(methoxy-L-alaninyl)]-phosphate]: the results for the EC50 in experiment [1] (setting [4]), in experiment [2] (Homo sapiens) and in experiment [3] were 70.2 µM, 13 µM and 61 µM, respectively.
Take `CC(C)(NP(=O)(OC[C@H]1O[C@@H](n2cc(/C=C/Br)c(=O)[nH]c2=O)CC1O)Oc1ccccc1)C(=O)OCc1ccccc1` (stereo partly drawn) [Example 14, (E)-5-(2-bromovinyl)-2′-deoxyuridine-5′-[phenyl-(benzoxy-α,α-dimethylglycinyl)]-phosphate]: the EC50 in experiment [1] (setting [4]) worked out at 14.5 µM; in experiment [2] (Homo sapiens) it was 5.1 µM; in experiment [3] it was 19 µM.
With `COC(=O)[C@H](C)NP(=O)(OC[C@H]1O[C@@H](n2cc(/C=C/Br)c(=O)[nH]c2=O)CC1O)Oc1ccc(C(F)(F)F)cc1` (stereo partly drawn) [Example 15, (E)-5-(2-bromovinyl)-2′-deoxyuridine-5′-[para-(trifluoromethyl)-phenyl-(methoxy-L-alaninyl)]-phosphate], the EC50 was determined as 79.2 µM in experiment [1] (setting [4]), 15 µM in experiment [2] (Homo sapiens) and 47 µM in experiment [3].
Regarding `COC(=O)C1(NP(=O)(OC[C@H]2O[C@@H](n3cc(/C=C/Br)c(=O)[nH]c3=O)CC2O)Oc2ccccc2)CCCC1` (stereo partly drawn) [Example 16, (E)-5-(2-Bromovinyl)-2′-deoxyuridine-5′-[phenyl-(methoxy-α,α-cycloleucinyl)]-phosphate], the EC50 in experiment [1] (setting [4]) was determined as 77 µM; in experiment [2] (Homo sapiens), 16 µM; in experiment [3], 79 µM.
With `CCOC(=O)C1(NP(=O)(OC[C@H]2O[C@@H](n3cc(/C=C/Br)c(=O)[nH]c3=O)CC2O)Oc2ccccc2)CCCC1` (stereo partly drawn) [Example 17, (E)-5-(2-Bromovinyl)-2′-deoxyuridine-5′-[phenyl-(ethoxy-α, α-cycloleucinyl)]-phosphate], the EC50 is 81.3 µM in experiment [1] (setting [4]), 41 µM in experiment [2] (Homo sapiens) and 44 µM in experiment [3].
For `O=C(OCc1ccccc1)C1(NP(=O)(OC[C@H]2O[C@@H](n3cc(/C=C/Br)c(=O)[nH]c3=O)CC2O)Oc2ccccc2)CCCC1` (stereo partly drawn) [Example 18, (E)-5-(2-Bromovinyl)-2′-deoxyuridine-5′-[phenyl-(benzoxy-α, α-cycloleucinyl)]-phosphate], the EC50 was 9.7 µM in experiment [1] (setting [4]), 33 µM in experiment [2] (Homo sapiens) and 78 µM in experiment [3].
`CCOC(=O)[C@H](C)NP(=O)(OC[C@H]1O[C@@H](n2cc(/C=C/Br)c(=O)[nH]c2=O)CC1O)Oc1ccc(C(F)(F)F)cc1` (stereo partly shown) [Example 25]: the EC50 in experiment [1] (setting [4]) worked out at 4.6 µM; in experiment [3], 33.8 µM.
Take `COC(=O)C1(NP(=O)(OC[C@H]2O[C@@H](n3cc(/C=C/Br)c(=O)[nH]c3=O)CC2O)Oc2ccc(C(F)(F)F)cc2)CCCC1` (stereo partly drawn) [Example 28, (E)-5-(2-Bromovinyl)-2′-deoxyuridine-5′-[para-trifluorophenyl-(methoxy-α,α-cycloleucinyl)]-phosphate]: the EC50 is 21.2 µM in experiment [1] (setting [4]) and 28.8 µM in experiment [3].
On to `O=C(OCc1ccccc1)C1(NP(=O)(OC[C@H]2O[C@@H](n3cc(/C=C/Br)c(=O)[nH]c3=O)CC2O)Oc2ccc(C(F)(F)F)cc2)CCCC1` (stereo partly drawn) [Example 30, (E)-5-(2-Bromovinyl)-2′-deoxyuridine-5′-[para-trifluorophenyl-(benzoxy-α,α-cycloleucinyl)]-phosphate], for which the figures for the EC50 in experiment [1] (setting [4]) and in experiment [3] were 6.4 µM and 6.9 µM, respectively.
As to `O=C(OCc1ccccc1)C(Cc1ccccc1)NP(=O)(OCC1OC(n2cc(C=CBr)c(=O)[nH]c2=O)CC1O)Oc1ccccc1` (stereo not shown) [Example 54], the EC50 in experiment [1] (setting [5]) turned out to be 5.1 µM.
The same measure, in the same setting: for `CCOC(=O)C(C)(C)NP(=O)(OCC1OC(n2cc(C=CBr)c(=O)[nH]c2=O)CC1O)Oc1ccc(C(F)(F)F)cc1` (stereo not shown) [Example 59] the value was 24.7 µM.
For `CCOC(=O)C(NP(=O)(OCC1OC(n2cc(C=CBr)c(=O)[nH]c2=O)CC1O)Oc1ccccc1)C(C)CC` (stereo not shown) [Example 73], in experiment [2] (setting [6]), the EC50 amounted to 30.6 µM.
As to `O=C(CNP(=O)(OCC1OC(n2cc(C=CBr)c(=O)[nH]c2=O)CC1O)Oc1ccc(Cl)cc1)OCc1ccccc1` (stereo not shown) [Example 77], the EC50 in experiment [2] (setting [6]) is 150 µM.
As for `CC(C)[C@H](NP(=O)(OC[C@H]1O[C@@H](n2cc(/C=C/Br)c(=O)[nH]c2=O)C[C@@H]1O)Oc1ccc(C(F)(F)F)cc1)C(=O)OCc1ccccc1` (stereo partly shown) [Example 78], the EC50 in experiment [2] (setting [6]) stood at 1.6 µM.
For `CC(C)(NP(=O)(OCC1OC(n2cc(C=CBr)c(=O)[nH]c2=O)CC1O)Oc1ccc(F)cc1)C(=O)OCc1ccccc1` (stereo not shown) [Example 84], the EC50 in experiment [2] (setting [6]) was determined as 4.5 µM.
On to `CC(C)C(NP(=O)(OCC1OC(n2cc(C=CBr)c(=O)[nH]c2=O)CC1O)Oc1ccccc1)C(=O)OCc1ccccc1` (stereo not shown) [Example 85], for which, in experiment [2] (setting [6]), the EC50 amounted to 31.2 µM.
The same measure, in the same setting: then `CC(C)C(NP(=O)(OCC1OC(n2cc(C=CBr)c(=O)[nH]c2=O)CC1O)Oc1ccc(Cl)cc1)C(=O)OCc1ccccc1` (stereo not shown) [Example 86], with 0.9 µM; and `O=C(OCc1ccccc1)C(NP(=O)(OCC1OC(n2cc(C=CBr)c(=O)[nH]c2=O)CC1O)Oc1ccc(C(F)(F)F)cc1)c1ccccc1` (stereo not shown) [Example 91], with 0.7 µM.
For the molecule “propenate-2′-deoxyuridine [Example 67, reference compound]”, the EC50 in experiment [1] (setting [5]) amounted to 93.7 µM.
